Laboratory results from ChEMBL document CHEMBL1132851, “Synthesis of the repeating unit of the O-specific polysaccharide of Shigella sonnei and quantitation of its serologic activity” (Bioorg Med Chem Lett, 2000).

The compounds below were run on Shigella sonnei (assay: Compound was evaluated for the inhibition of hemolysis of Shigella sonneili polysaccharide-sensitized erythrocyte using a hyper-immune rabbit serum).
Type: functional, organism-based
CO[C@@H]1OC(C(=O)O)[C@H](O)C(O)[C@@H]1NC(C)=O (stereo partly drawn) gave an IC50 of 6.9 mM. For CO[C@@H]1OC(C)[C@H](N)C(O)[C@@H]1NC(C)=O (stereo partly drawn), the IC50 was 9.8 mM. For CO[C@@H]1OC(C(=O)O)[C@H](O[C@@H]2OC(C)[C@H](N)C(O)[C@@H]2NC(C)=O)C(O)[C@@H]1NC(C)=O (stereo partly drawn), the IC50 was 3.9 mM.
